Source: patent US10239881B2, “RIPK2 inhibitors and method of treating cancer with same” (University Health Network, priority 2014, dated 2019)
Blank lines part the entries; values can stand above or below the molecule they belong to.

What was measured:
human RIPK2 kinase = human RIPK2 kinase (Homo sapiens (Human), UniProt O43353); assay: RIPK2 inhibition assay (indirect ELISA); format: biochemical; conditions: His-RIPK2 0.6 nM, 6 μM ATP; read-out: RIPK2 IC50 range
Procedure: Active RIPK2 was purchased from Life Technologies as His-tagged of catalityc domain (amin acids 1-299) of human RIPK2 kinase expressed in insect cells. Amino terminal 6 histidine, sumo tagged human TTK (residues 1-275) was expressed in E. coli, and purified to >95% homogeneity by Ni^2+ agarose, gel filtration, and ion exchange chromatography.
RIPK2 activity was measured using an indirect ELISA detection system. His—RIPK2 (0.6 nM) was incubated in the presence of 6 μM ATP (Sigma cat # A7699), 20 mM Hepes, pH 7.5, 1 mM EGTA, 2.5 mM MgCl2, 2.5 mM MnCl2 and 0.01% Triton X-100 in a 96 well microtitre plate pre-coated with amino terminal 6 histidine, sumo tagged TTK (amino acid residues 1-275). The reaction was allowed to proceed for 30 minutes, followed by 5 washes of the plate with Wash Buffer (phosphate buffered saline supplemented with 0.2% Tween 20), and incubation for 30 minutes with a 1:3000 dilution of primary antibody (Cell Signaling cat #9381). The plate was washed 5 times with Wash Buffer, incubated for 30 minutes in the presence of secondary antibody coupled to horse radish peroxidase (BioRad cat #1721019, 1:3000 concentration), washed an additional 5 times with Wash Buffer, and incubated in the presence of TMB substrate (Sigma cat # T0440). The colorimetric reaction was allowed to continue for 5 minutes, followed by addition of stop solution (0.5 N H2SO4), and quantified by detection at 450 nm with either a monoChromatic or filter based plate reader (Molecular Devices M5 or Beckman DTX880, respectively).
Compound inhibition was determined at either a fixed concentration (10 μM) or at a variable inhibitor concentration (typically 50 μM to 0.1 μM in a 10 point dose response titration). Compounds were pre-incubated in the presence of enzyme for 15 minutes prior to addition of ATP and the activity remaining quantified using the above described activity assay. The % Inhibition of a compound was determined using the following formula; % Inhibition=100×(1−(experimental value−background value)/(high activity control−background value)). The IC50 value was determined using a non-linear 4 point logistic curve fit (XLfit4, IDBS) with the formula; (A+(B/(1+((x/C)^D)))), where A=background value, B=range, C=inflection point, D=curve fit parameter.

[1] = test system: MDA-MB-468 breast cancer cells; assay: Sulforhodamine B cell growth inhibition assay; format: cell-based; conditions: Homo sapiens, MDA-MB-468, 120 h; 5 days, SRB; read-out: Breast GI50 range MDA-MB-468
Procedure: (§1) Breast cancer cells (MDA-MB-231 and MDA-MB-468), colon cancer cells (HCT116 and HT-29) and ovarian cancer cells (SKOV-3 and OVCAR-3) were seeded (1000 to 4000 in 80 μL per well depending on the cell growth rate) into 96 well plates 24 hours before compound overlay. Compounds were prepared as 10 mM stock solutions in 100% DMSO which were diluted with DMEM (Dulbecco's Modified Eagle's Medium) cell growth Medium (Invitrogen, Burlington, ON, Canada) containing 10% FBS (Fetal Bovine Serum) to concentrations ranging from 50 nM to 250 μM. Aliquots (20 μL) from each concentration were overlaid to 80 μL of the pre-seeded cells in the 96 well plates to make final concentrations of 10 nM to 50 μM. The cells were cultured for 5 days before the Sulforhodamine B assay (SRB) was performed to determine the compound's cell growth inhibition activity.
(§2) The cells are fixed in situ by gently aspirating off the culture media and adding 50 μL ice cold 10% trichloroacetic acid per well and incubate at 4° C. for 30-60 min. The plates are washed with H2O five times and allowed to air dry for 5 min. Addition of 50 μL 0.4% (w/v) SRB solution in 1% (v/v) acetic acid to each well and incubation for 30 min at rt completes the staining reaction. Following staining, plates are washed four times with 1% acetic acid to remove unbound dye and then allowed to air dry for 5 min. The stain is solubilized with 100 μL of 10 mM Tris pH 10.5 per well. Absorbance is read at 570 nm. The percentage (%) of relative growth inhibition was calculated by comparing to DMSO treated only cells (100%). GI50's were determined for compounds with cytotoxic activity. The GI50 was calculated using GraphPad PRISM software (GraphPad Software, Inc., San Diego, Calif., USA). GI50 (growth inhibition) is the compound concentration that causes 50% inhibition of cell growth.
(§3) In Table 2 lists GI50 value ranges for compound examples against breast cancer cell lines (MDA-MB-231, MDA-MB-468), colon cancer cell lines (HCT116, HT-29) and ovarian cancer cell lines (OVCAR-3, SKOV-3) are given. […] The GI50 ranges are indicated as “A,” “B,” and “C,” for values less than or equal to 1 μM; those greater than 1 μM and less than or equal to 10 μM; and those greater than 10 μM, respectively.

[2] = test system: HCT116 colon cancer cells; assay: Sulforhodamine B cell growth inhibition assay; format: cell-based; conditions: Homo sapiens, HCT-116, 120 h; 5 days, SRB; read-out: Colon GI50 range HCT116
Procedure: as §1, §2, §3

[3] = test system: MDA-MB-231 breast cancer cells; assay: Sulforhodamine B cell growth inhibition assay; format: cell-based; conditions: Homo sapiens, MDA-MB-231, 120 h; 5 days, SRB; read-out: Breast GI50 range MDA-MB-231
Procedure: as §1, §2, §3

[4] = test system: SKOV-3 ovarian cancer cells; assay: Sulforhodamine B cell growth inhibition assay; format: cell-based; conditions: Homo sapiens, SK-OV-3, 120 h; 5 days, SRB; read-out: Ovarian GI50 range SKOV-3
Procedure: as §1, §2, §3

[5] = test system: OVCAR-3 ovarian cancer cells; assay: Sulforhodamine B cell growth inhibition assay; format: cell-based; conditions: Homo sapiens, OVCAR-3, 120 h; 5 days, SRB; read-out: Ovarian GI50 range OVCAR-3
Procedure: as §1, §2, §3

HT-29 colon cancer cells = assay: Sulforhodamine B cell growth inhibition assay; format: cell-based; conditions: Homo sapiens, HT-29, 120 h; 5 days, SRB; read-out: Colon GI50 range HT29
Procedure: as §1, §2, §3

Chain of human RIPK2 kinase (O43353 1-299): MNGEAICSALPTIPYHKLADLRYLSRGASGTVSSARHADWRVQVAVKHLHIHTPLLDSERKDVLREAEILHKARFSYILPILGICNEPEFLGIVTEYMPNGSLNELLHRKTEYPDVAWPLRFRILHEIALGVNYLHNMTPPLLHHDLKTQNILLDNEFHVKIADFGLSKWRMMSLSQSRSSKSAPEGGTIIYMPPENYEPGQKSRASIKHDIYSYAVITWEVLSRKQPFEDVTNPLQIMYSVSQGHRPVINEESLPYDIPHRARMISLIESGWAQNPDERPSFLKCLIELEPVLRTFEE

IC50 (human RIPK2 kinase): ≤ 100 nM | GI50 [1]: 1000 to 10000 nM | GI50 [2]: 1000 to 10000 nM | GI50 [3]: 1000 to 10000 nM | GI50 [4]: 1000 to 10000 nM | GI50 [5]: 1000 to 10000 nM | GI50 (HT-29 colon cancer cells): 1000 to 10000 nM
Structure (SMILES): Cc1ccccc1-c1cc2nc(Nc3ccc(OC4CCN(C)CC4)cc3)ncc2[nH]1 [Example A2, N-(4-((1-methylpiperidin-4-yl)oxy)phenyl)-6-(o-tolyl)-5H-pyrrolo[3,2-d] pyrimidin-2-amine]

IC50 (human RIPK2 kinase): ≤ 100 nM | GI50 [2]: 1000 to 10000 nM | GI50 [3]: 1000 to 10000 nM | GI50 [4]: 1000 to 10000 nM | GI50 [5]: 1000 to 10000 nM | GI50 (HT-29 colon cancer cells): 1000 to 10000 nM
Structure (SMILES): Cc1ccccc1-c1cc2nc(Nc3cccc(CN4CCOCC4)c3)ncc2[nH]1 [Example A7, N-(3-(morpholino-methyl)phenyl)-6-(o-tolyl)-5H-pyrrolo[3,2-d] pyrimidin-2-amine]

IC50 (human RIPK2 kinase): ≤ 100 nM | GI50 [2]: > 10000 nM | GI50 [3]: > 10000 nM | GI50 [4]: > 10000 nM | GI50 [5]: > 10000 nM | GI50 (HT-29 colon cancer cells): > 10000 nM
Structure (SMILES): Cc1ccccc1-c1cc2nc(Nc3ccc(N4CCOCC4)cc3)ncc2[nH]1 [Example A8, N-(4-morpholino-phenyl)-6-(o-tolyl)-5H-pyrrolo[3,2-d]pyrimidin-2-amine]

IC50 (human RIPK2 kinase): ≤ 100 nM | GI50 [2]: 1000 to 10000 nM | GI50 [3]: > 10000 nM | GI50 [4]: ≤ 1000 nM | GI50 [5]: ≤ 1000 nM | GI50 (HT-29 colon cancer cells): ≤ 1000 nM
Structure (SMILES): Cc1ccccc1-c1cc2nc(Nc3cccc(CN4CCN(C)CC4)c3)ncc2[nH]1 [Example A9, N-(3-((4-methylpiperazin-1-yl)methyl)phenyl)-6-(o-tolyl)-5H-pyrrolo[3,2-d] pyrimidin-2-amine]

IC50 (human RIPK2 kinase): ≤ 100 nM
Structure (SMILES): Cc1ccccc1-c1cc2nc(Nc3ccc(CN4CCOCC4)cc3)ncc2[nH]1 [Example A15, N-(4-(morpholino-methyl)phenyl)-6-(o-tolyl)-5H-pyrrolo[3,2-d] pyrimidin-2-amine]

IC50 (human RIPK2 kinase): ≤ 100 nM
Structure (SMILES): Cc1ccccc1-c1cc2nc(Nc3ccc(N4CCN(C)CC4)cc3)ncc2[nH]1 [Example A17, N-(4-(4-methylpiperazin-1-yl)phenyl)-6-(o-tolyl)-5H-pyrrolo[3,2-d]pyrimidin-2-amine]

IC50 (human RIPK2 kinase): ≤ 100 nM
Structure (SMILES): Cc1ccccc1-c1cc2nc(Nc3ccc(CN4CCN(C)CC4)cc3)ncc2[nH]1 [Example A18, N-(4-((4-methylpiperazin-1-yl)methyl)phenyl)-6-(o-tolyl)-5H-pyrrolo[3,2-d] pyrimidin-2-amine]

IC50 (human RIPK2 kinase): > 500 nM
Structure (SMILES): Cc1ccccc1-c1cc2nc(NCCCN3CCOCC3)ncc2[nH]1 [Example A19, N-(3-morpholinopropyl)-6-(o-tolyl)-5H-pyrrolo[3,2-d]pyrimidin-2-amine]

IC50 (human RIPK2 kinase): 100 to 500 nM
Structure (SMILES): Cc1ccccc1-c1cc2nc(N[C@H]3CC[C@@H](O)CC3)ncc2[nH]1 [Example A21, (1r,4)-4-((6-(o-tolyl)-5H-pyrrolo[3,2-d]pyrimidin-2-yl)amino) cyclohexanol]

IC50 (human RIPK2 kinase): > 500 nM
Structure (SMILES): Cc1ccccc1-c1cc2nc(N[C@H]3CC[C@@H](O)CC3)ncc2[nH]1 [Example A22, (1s,4s)-4-((6-(o-tolyl)-5H-pyrrolo[3,2-d]pyrimidin-2-yl)amino) cyclohexanol]

IC50 (human RIPK2 kinase): > 500 nM
Structure (SMILES): Cc1ccccc1-c1cc2nc(NC3CCOCC3)ncc2[nH]1 [Example A23, N-(tetrahydro-2H-pyran-4-yl)-6-(o-tolyl)-5H-pyrrolo[3,2-d]pyrimidin-2-amine]

IC50 (human RIPK2 kinase): 100 to 500 nM
Structure (SMILES): Cc1ccccc1-c1cc2nc(NCC3CCOCC3)ncc2[nH]1 [Example A24, N-((tetrahydro-2H-pyran-4-yl)methyl)-6-(o-tolyl)-5H-pyrrolo[3,2-d]pyrimidin-2-amine]

IC50 (human RIPK2 kinase): > 500 nM
Structure (SMILES): Cc1ccccc1-c1cc2nc(NCC3(N4CCOCC4)CCCC3)ncc2[nH]1 [Example A26, N-((1-morpholino-cyclopentyl)methyl)-6-(o-tolyl)-5H-pyrrolo[3,2-d]pyrimidin-2-amine]

The next lines start with the molecule.

Structure (SMILES): c1ccc(Nc2ncc3[nH]c(-c4ccccc4)cc3n2)cc1 [Example A1, N,6-diphenyl-5H-pyrrolo[3,2-d]pyrimidin-2-amine]
IC50 (human RIPK2 kinase): > 500 nM

Structure (SMILES): Cc1nc(Nc2ncc3[nH]c(-c4ccccc4C)cc3n2)cc(N2CCN(CCO)CC2)n1 [Example A5, 2-(4-(2-methyl-6-((6-(o-tolyl)-5H-pyrrolo[3,2-d]pyrimidin-2-yl)amino)pyrimidin-4-yl)piperazin-1-yl)ethanol]
IC50 (human RIPK2 kinase): > 500 nM

Structure (SMILES): Cc1cccc(C)c1-c1cc2nc(Nc3cccc(N4CCN(C)CC4)c3)ncc2[nH]1 [Example A6, 6-(2,6-dimethylphenyl)-N-(3-(4-methylpiperazin-1-yl)phenyl)-5H-pyrrolo[3,2-d]pyrimidin-2-amine]
IC50 (human RIPK2 kinase): ≤ 100 nM | GI50 [2]: 1000 to 10000 nM | GI50 [3]: 1000 to 10000 nM | GI50 [4]: ≤ 1000 nM | GI50 [5]: ≤ 1000 nM | GI50 (HT-29 colon cancer cells): ≤ 1000 nM

Structure (SMILES): CN1CCN(c2cccc(Nc3ncc4[nH]c(C5CCCC5)cc4n3)c2)CC1 [Example A10, 6-cyclopentyl-N-(3-(4-methylpiperazin-1-yl)phenyl)-5H-pyrrolo[3,2-d]pyrimidin-2-amine]
IC50 (human RIPK2 kinase): > 500 nM

Structure (SMILES): CN1CCN(c2cccc(Nc3ncc4[nH]c(-c5ccsc5)cc4n3)c2)CC1 [Example A11, N-(3-(4-methylpiperazin-1-yl)phenyl)-6-(thiophen-3-yl)-5H-pyrrolo[3,2-d]pyrimidin-2-amine]
IC50 (human RIPK2 kinase): ≤ 100 nM

Structure (SMILES): c1cc(Nc2ncc3[nH]c(C4CCOCC4)cc3n2)cc(N2CCOCC2)c1 [Example A14, N-(3-morpholino-phenyl)-6-(tetrahydro-2H-pyran-4-yl)-5H-pyrrolo[3,2-d] pyrimidin-2-amine]
IC50 (human RIPK2 kinase): > 500 nM

Structure (SMILES): OCCN1CCN(c2cccc(Nc3ncc4[nH]c(-c5ccccc5Cl)cc4n3)c2)CC1 [Example A16, 2-(4-(3-((6-(2-chlorophenyl)-5H-pyrrolo[3,2-d]pyrimidin-2-yl)amino)phenyl)piperazin-1-yl) ethanol]
IC50 (human RIPK2 kinase): ≤ 100 nM

Structure (SMILES): Clc1ccccc1-c1cc2nc(Nc3cccc(N4CCOCC4)c3)ncc2[nH]1 [Example A20, 6-(2-chloro-phenyl)-N-(3-morpholino-phenyl)-5H-pyrrolo[3,2-d]pyrimidin-2-amine]
IC50 (human RIPK2 kinase): ≤ 100 nM

Structure (SMILES): COc1ccccc1-c1cc2nc(Nc3cccc(N4CCOCC4)c3)ncc2[nH]1 [Example A25, 6-(2-methoxy-phenyl)-N-(3-morpholino-phenyl)-5H-pyrrolo[3,2-d] pyrimidin-2-amine]
IC50 (human RIPK2 kinase): 100 to 500 nM
